Legend:
Format in all cases: cell-based
[1] = test system: HBeAg; assay: PHH HBV natural infection assay, HBeAg (alphalisa); settings: Hepatitis B virus, Hepatocyte, 72 h, read-out: HbeAg IC50, HBV-infected primary human hepatocytes, supernatant, compound medium refreshed two times with 72-hour interval
Procedure: (§1) Detailed procedures regarding primary human hepatocyte (PHH) HBV natural infection assay are described as below. One tube of frozen PHH (10 million cells) is thawed in 37° C. water bath and then transferred to 20 mL of PHH thawing medium (Sigma, InVitroGRO HT Medium, Cat. S03319) with gently mixing. The cells were then centrifuged at […] for 5 min, the supernatant was discarded and the tube was refilled with 25 mL of PHH plating medium (Sigma, InVitroGRO CP Medium, Cat. S03317). The tube was shaken very gently to re-suspend all cells, and then 50 μl of cells were transferred to each well 384-well collagen I coated plate with appropriate liquid handling equipment, e.g. Integra VIAFLO384 or Agilent Bravo. The cells were then cultured for 24 hours in a cell incubator. For HBV infection, after PHH attachment on the culture plate, the plating medium was removed and replenished with PHH culture medium containing HBV virus. The PHH culture medium was prepared with Dulbecco's Modified Eagle Medium (DMEM)/F12 (1:1 in volume ratio) containing 10% fetal bovine serum (Gibco, Cat. 10099141), 5 ng/mL human epidermal growth factor (Gibco, Cat.PHG0311L), 20 ng/mL dexamethasone (Sigma, Cat.D4902-100 mg), 250 ng/mL human recombinant insulin (Gibco, Cat.41400045) and 100 U/mL penicillin. HBV virus at 200 genome equivalent (GE) per cell with 4% PEG8000 (Sigma, Cat.P1458) containing culture medium were added to the PHH culture medium for infection. The cells were then cultured for 24 hours in cell incubator. Then the cell culture supernatant was removed. The HBV-infected PHH were cultured with sandwich culture method with PHH culture medium containing 1% DMSO and 0.25 mg/mL matrix gel for 72 hours. The supernatant was then refreshed with PHH culture medium containing different concentrations of testing compounds for two times with 72-hour interval. At the end of treatment, the supernatant was collected for viral markers measurements, including HBsAg, HBeAg, HBV DNA and cytotoxicity. HBsAg and HBeAg were detected using alphalisa method using their specific antibodies. For HBV DNA detection, HBV DNA Quantitative Fluorescence Diagnostic Kit (Sansure Biotech Inc.) was used following the manufacture's protocol. Cytotoxicity was determined using Cell Counting Kit-8 (CCK8, Dojindo Molecular Technologies, Inc.).
(§2) The compounds of the present invention were tested for their capacity to inhibit HBsAg and HBeAg as described herein.

[2] = PHH natural infection assay, cytotoxicity (Cell Counting Kit-8); settings: human, HBV-infected primary human hepatocytes, CCK8, end of treatment
Procedure: as §1

[3] = test system: HBsAg; assay: PHH HBV natural infection assay, HBsAg (alphalisa); settings: Hepatitis B virus, Hepatocyte, 72 h, read-out: HBsAg IC50, HBV-infected primary human hepatocytes, supernatant, compound medium refreshed two times with 72-hour interval
Procedure: as §1, §2

Compound	IC50 [1] [µM]	CC50 at 144 h [2] [µM]	IC50 [3] [µM]
O=C(NC1CC2(C1)CC(c1nc3cc(Cl)ccc3o1)C2)c1ccc(S(=O)(=O)CC2COC2)o1 (stereo not drawn) [Example 24, N-[6-(5-chloro-1,3-benzoxazol-2-yl)spiro[3.3]heptan-2-yl]-5-(oxetan-3-ylmethylsulfonyl)furan-2-carboxamide]	2.33	95.3	2.44
CN1CC(CS(=O)(=O)c2ccc(C(=O)NC3CC4(C3)CC(c3nc5cc(Cl)ccc5o3)C4)o2)C1 (stereo not drawn) [Example 25, N-[6-(5-chloro-1,3-benzoxazol-2-yl)spiro[3.3]heptan-2-yl]-5-[(1-methylazetidin-3-yl)methylsulfonyl]furan-2-carboxamide]	3.73	> 10	4.19
O=C(NC1CC2(C1)CC(c1nc3cc(Cl)ccc3o1)C2)c1ccc(S(=O)(=O)CC2CN(C(=O)OCc3ccccc3)C2)o1 (stereo not drawn) [Example 26, benzyl 3-[[5-[[6-(5-chloro-1,3-benzoxazol-2-yl)spiro[3.3]heptan-2-yl]carbamoyl]-2-furyl]sulfonylmethyl]azetidine-1-carboxylate]	0.329	> 100	0.365
O=C(NC1CC2(C1)CC(c1nc3cc(Cl)ccc3o1)C2)c1ccc(S(=O)(=O)CC2CC(F)(F)C2)o1 (stereo not drawn) [Example 27, N-[6-(5-chloro-1,3-benzoxazol-2-yl)spiro[3.3]heptan-2-yl]-5-[(3,3-difluorocyclobutyl)methylsulfonyl]furan-2-carboxamide]	0.116	> 100	0.152
COCCS(=O)(=O)c1ccc(C(=O)NC2CC3(C2)CC(c2nc4cc(Cl)ccc4o2)C3)o1 (stereo not drawn) [Example 28, N-[6-(5-chloro-1,3-benzoxazol-2-yl)spiro[3.3]heptan-2-yl]-5-(2-methoxyethylsulfonyl)furan-2-carboxamide]	0.509	94.2	0.758
NS(=O)(=O)c1ccc(C(=O)NC2CC3(C2)CC(c2nc4cc(Cl)ccc4o2)C3)o1 (stereo not drawn) [Example 29, N-[6-(5-chloro-1,3-benzoxazol-2-yl)spiro[3.3]heptan-2-yl]-5-sulfamoyl-furan-2-carboxamide]	0.509	94.2	0.534
CS(=O)(=O)Cc1ccc(C(=O)NC2CC3(C2)CC(c2nc4cc(Cl)ccc4o2)C3)o1 (stereo not drawn) [Example 30, N-[6-(5-chloro-1,3-benzoxazol-2-yl)spiro[3.3]heptan-2-yl]-5-(methylsulfonylmethyl)furan-2-carboxamide]	2.17	> 100	3.97
O=C(NC1CC2(C1)CC(c1nc3cc(Cl)ccc3o1)C2)c1ccc(CS(=O)(=O)C2CC2)o1 (stereo not drawn) [Example 31, N-[6-(5-chloro-1,3-benzoxazol-2-yl)spiro[3.3]heptan-2-yl]-5-(cyclopropylsulfonylmethyl)furan-2-carboxamide]	6.98	> 100	7.56
CS(=O)(=O)CCc1ccc(C(=O)NC2CC3(C2)CC(c2nc4cc(Cl)ccc4o2)C3)o1 (stereo not drawn) [Example 32, N-[6-(5-chloro-1,3-benzoxazol-2-yl)spiro[3.3]heptan-2-yl]-5-(2-methylsulfonylethyl)furan-2-carboxamide]	3.15	> 100	4.94
NS(=O)(=O)Cc1ccc(C(=O)NC2CC3(C2)CC(c2nc4cc(Cl)ccc4o2)C3)o1 (stereo not drawn) [Example 33, N-[6-(5-chloro-1,3-benzoxazol-2-yl)spiro[3.3]heptan-2-yl]-5-(sulfamoylmethyl)furan-2-carboxamide]	1.39	> 100	1.41
NS(=O)(=O)CCc1ccc(C(=O)NC2CC3(C2)CC(c2nc4cc(Cl)ccc4o2)C3)o1 (stereo not drawn) [Example 34, N-[6-(5-chloro-1,3-benzoxazol-2-yl)spiro[3.3]heptan-2-yl]-5-(2-sulfamoylethyl)furan-2-carboxamide]	5.84	> 100	8.78
NS(=O)(=O)NCc1ccc(C(=O)NC2CC3(C2)CC(c2nc4cc(Cl)ccc4o2)C3)o1 (stereo not drawn) [Example 35, N-[6-(5-chloro-1,3-benzoxazol-2-yl)spiro[3.3]heptan-2-yl]-5-[(sulfamoylamino)methyl]furan-2-carboxamide]	6.53	98.3	7.81
CCS(=O)(=O)c1oc(C(=O)NC2CC3(C2)CC(c2nc4cc(Cl)ccc4o2)C3)cc1Br (stereo not drawn) [Example 36, 4-bromo-N-[6-(5-chloro-1,3-benzoxazol-2-yl)spiro[3.3]heptan-2-yl]-5-ethylsulfonyl-furan-2-carboxamide]	0.815	> 100	0.885
CCS(=O)(=O)c1cc(C)c(C(=O)NC2CC3(C2)CC(c2nc4cc(Cl)ccc4o2)C3)o1 (stereo not drawn) [Example 37, N-[6-(5-chloro-1,3-benzoxazol-2-yl)spiro[3.3]heptan-2-yl]-5-ethylsulfonyl-3-methyl-furan-2-carboxamide]	5.72	> 100	9.38
CC(C)(C)[S+]([O-])c1ccc(C(=O)NC2CC3(C2)CC(c2nc4cc(Cl)ccc4o2)C3)o1 (stereo not drawn) [Example 38, 5-tert-butylsulfinyl-N-[6-(5-chloro-1,3-benzoxazol-2-yl)spiro[3.3]heptan-2-yl]furan-2-carboxamide]	0.317	96.3	0.526
CC(C)(C)S(=O)(=O)c1ccc(C(=O)NC2CC3(C2)CC(c2nc4cc(Cl)ccc4o2)C3)o1 (stereo not drawn) [Example 39, 5-tert-butylsulfonyl-N-[6-(5-chloro-1,3-benzoxazol-2-yl)spiro[3.3]heptan-2-yl]furan-2-carboxamide]	0.603	> 10	0.96
O=C(NC1CC2(C1)CC(c1nc3cc(Cl)ccc3o1)C2)c1ccc([S+]([O-])C2CC2)o1 (stereo not drawn) [Example 40, N-[6-(5-chloro-1,3-benzoxazol-2-yl)spiro[3.3]heptan-2-yl]-5-cyclopropylsulfinyl-furan-2-carboxamide]	0.067	> 10	0.084
O=C(NC1CC2(C1)CC(c1nc3cc(Cl)ccc3o1)C2)c1ccc(SC(F)(F)F)o1 (stereo not drawn) [Example 41, N-[6-(5-chloro-1,3-benzoxazol-2-yl)spiro[3.3]heptan-2-yl]-5-(trifluoromethylsulfanyl)furan-2-carboxamide]	6.62	> 100	8.47
O=C(NC1CC2(C1)CC(c1nc3cc(Cl)ccc3o1)C2)c1ccc([S+]([O-])C(F)(F)F)o1 (stereo not drawn) [Example 42, N-[6-(5-chloro-1,3-benzoxazol-2-yl)spiro[3.3]heptan-2-yl]-5-(trifluoromethylsulfinyl)furan-2-carboxamide]	1.41	96.2	1.52
O=C(NC1CC2(C1)CC(c1nc3cc(Cl)ccc3o1)C2)c1ccc(S(=O)(=O)C(F)(F)F)o1 (stereo not drawn) [Example 43, N-[6-(5-chloro-1,3-benzoxazol-2-yl)spiro[3.3]heptan-2-yl]-5-(trifluoromethylsulfonyl)furan-2-carboxamide]	0.839	> 100	1.14
CC(C)S(=O)(=O)Cc1ccc(C(=O)NC2CC3(C2)CC(c2nc4cc(Cl)ccc4o2)C3)o1 (stereo not drawn) [Example 44, N-[6-(5-chloro-1,3-benzoxazol-2-yl)spiro[3.3]heptan-2-yl]-5-(isopropylsulfonylmethyl)furan-2-carboxamide]	1.55	95.8	1.8
CS(=O)(=O)c1ccc(C(=O)NC2CC3(C2)CC(c2nc4cc(Cl)ccc4o2)C3)s1 (stereo not drawn) [Example 45, N-[6-(5-chloro-1,3-benzoxazol-2-yl)spiro[3.3]heptan-2-yl]-5-methylsulfonyl-thiophene-2-carboxamide]	1.9	> 100	2.21
O=C(NC1CC2(C1)CC(c1nc3ccc(Cl)cc3o1)C2)c1ccc(C(F)(F)F)o1 (stereo not drawn) [Example 46, N-[6-(6-chloro-1,3-benzoxazol-2-yl)spiro[3.3]heptan-2-yl]-5-(trifluoromethyl)furan-2-carboxamide]	2.81	89.8	5.83

Source: patent publication US20230286969A1, “AROMATIC SPIRO RING AMIDE DERIVATIVES FOR THE TREATMENT AND PROPHYLAXIS OF HEPATITIS B VIRUS INFECTION” (Hoffmann-La Roche Inc., priority 2020, published 2023)
